Data: the NIST ThermoML archive (doi:10.1021/je800894y)

Conditions: Liquid; for viscosity: Vibrating wire viscometry; for mass density: vibrating-wire apparatus

CC(C)CCCC(C)CCCC(C)CCCCC(C)CCCC(C)CCCC(C)C (centres undefined) [2,6,10,15,19,23-hexamethyltetracosane]
Conditions	mass density [kg/m3]	viscosity [mPa·s]
303.18 K, 1070 kPa	802	22
303.18 K, 5300 kPa	803.5	24.2
303.18 K, 5740 kPa	804.4	24.4
303.18 K, 15580 kPa	806.9	30.3
303.18 K, 25530 kPa	813.9	36.9
303.18 K, 35790 kPa	826.5	44.3
303.18 K, 45770 kPa	825.1	54.6
303.18 K, 55770 kPa	825.9	66.3
348.13 K, 5270 kPa	776.9	5.59
348.13 K, 5290 kPa	777	5.6
348.13 K, 25490 kPa	790.6	7.79
348.13 K, 56280 kPa	807.7	12.3
348.13 K, 85860 kPa	821.2	18.4
348.13 K, 115830 kPa	832.6	26.9
348.13 K, 145930 kPa	844.3	38.7
348.13 K, 175120 kPa	843.2	55.6
398.15 K, 5160 kPa	746.3	2.17
398.15 K, 5230 kPa	746.4	2.17
398.15 K, 25310 kPa	763.3	2.89
398.15 K, 56100 kPa	783.5	4.24
398.15 K, 85890 kPa	799.5	5.88
398.15 K, 115450 kPa	812.6	7.93
398.15 K, 145820 kPa	824.7	10.6
398.15 K, 176100 kPa	835.4	13.8
448.25 K, 5580 kPa	716.3	1.17
448.25 K, 5730 kPa	716.5	1.18
448.25 K, 25470 kPa	736.8	1.54
448.25 K, 55510 kPa	759.9	2.17
448.25 K, 85620 kPa	778.7	2.89
448.25 K, 115510 kPa	793.3	3.76
448.25 K, 145580 kPa	806.4	4.78
448.25 K, 176050 kPa	818.2	5.99
